Experimental data from ChEMBL document CHEMBL1201862, “PubChem BioAssay data set” (2004).
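How tested: cells in 96-well plates exposed to compound for 48 hours at five concentrations. GI50 marks 50% less growth.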 Active and inactive are the calls of the source. Cut-off read from the data, not from the text of the source: active = GI50 up to about 1.1 µM and inactive = higher.

Experiments:
Assay in all cases: inhibition of tumour cell growth, NCI panel, 48 h
A549 = test system: A549
ACHN = test system: ACHN
CCRF-CEM = test system: CCRF-CEM
HCC 2998 = test system: HCC 2998
HCT-116 = test system: HCT-116
HCT-15 = test system: HCT-15
HOP-92 = test system: HOP-92
LOX IMVI = test system: LOX IMVI
MDA-N = test system: MDA-N
NCI-H226 = test system: NCI-H226
NCI/ADR-RES = test system: NCI/ADR-RES
RPMI-8226 = test system: RPMI-8226
SF-268 = test system: SF-268
SF-295 = test system: SF-295
SK-MEL-2 = test system: SK-MEL-2
SW-620 = test system: SW-620
T47D = test system: T47D
UACC-257 = test system: UACC-257
UACC-62 = test system: UACC-62
KM-20L2 = test system: KM-20L2

Structure (SMILES) | GI50 (A549) | GI50 (ACHN) | GI50 (CCRF-CEM) | GI50 (HCC 2998) | GI50 (HCT-116) | GI50 (HCT-15) | GI50 (HOP-92) | GI50 (LOX IMVI) | GI50 (MDA-N) | GI50 (NCI-H226) | GI50 (NCI/ADR-RES) | GI50 (RPMI-8226) | GI50 (SF-268) | GI50 (SF-295) | GI50 (SK-MEL-2) | GI50 (SW-620) | GI50 (T47D) | GI50 (UACC-257) | GI50 (UACC-62) | GI50 (KM-20L2)
Nc1ccc2c3[nH]c4cc(N)ccc4cc-3nc2c1 | 0.286 µM (active) | 0.0236 µM (active) | 0.158 µM (active) | 0.09 µM (active) | 0.0582 µM (active) | 0.266 µM | 0.0422 µM (active) | 0.199 µM (active) | 0.194 µM (active) | 0.174 µM (active) | 0.243 µM (active) | 0.414 µM (active) | 0.232 µM (active) | 0.265 µM (active) | 0.413 µM (active) | 0.0603 µM (active) | 0.284 µM (active) | 0.172 µM (active) | 0.194 µM (active) | 
Cc1nn2c3c(nnc2c1C#N)C(=O)NN=C(N)S3 | > 100 µM (inactive) |  | > 100 µM (inactive) |  | > 100 µM (inactive) |  | > 100 µM (inactive) |  |  |  |  | > 100 µM (inactive) | > 100 µM (inactive) | > 100 µM (inactive) |  | > 100 µM (inactive) |  |  | > 100 µM (inactive) | > 100 µM (inactive)
FC(F)(F)c1nc(-c2ccccc2Cl)[nH]c1C(F)(F)F | 0.7 µM (active) | 0.841 µM (active) | 0.504 µM (active) |  | 0.729 µM (active) | 0.875 µM | 0.408 µM (active) | 0.459 µM (active) |  | 0.61 µM (active) |  | 2.66 µM (inactive) | 1.23 µM (inactive) | 0.681 µM (active) | 0.501 µM (active) | 1.15 µM (inactive) |  | 0.646 µM (active) | 0.766 µM (active) | 0.619 µM (active)
O=C(CSc1nnc(-c2ccc(/N=C\c3ccc(Cl)cc3)cc2)o1)Nc1ccccc1[N+](=O)[O-] | > 100 µM (inactive) | > 100 µM (inactive) | > 100 µM (inactive) |  | > 100 µM (inactive) | > 100 µM |  | > 100 µM (inactive) |  | > 100 µM (inactive) |  | > 100 µM (inactive) | > 100 µM (inactive) | > 100 µM (inactive) | > 100 µM (inactive) | > 100 µM (inactive) |  | > 100 µM (inactive) | > 100 µM (inactive) | > 100 µM (inactive)
CC(C)[S+]1C2=C(CC(C)(C)CC2=O)[N-]c2ccccc21 (stereo not drawn) | > 100 µM (inactive) | > 100 µM (inactive) | > 100 µM (inactive) | > 100 µM (inactive) | > 100 µM (inactive) | > 100 µM | > 100 µM (inactive) | > 100 µM (inactive) | > 100 µM (inactive) | > 100 µM (inactive) | > 100 µM (inactive) | > 100 µM (inactive) | > 100 µM (inactive) | > 100 µM (inactive) | > 100 µM (inactive) | > 100 µM (inactive) | > 100 µM (inactive) | > 100 µM (inactive) | > 100 µM (inactive) | 
NC(=O)N(O)c1cccc(Br)c1 | > 100 µM (inactive) | > 100 µM (inactive) | > 100 µM (inactive) | > 100 µM (inactive) | > 100 µM (inactive) | > 100 µM | > 100 µM (inactive) | > 100 µM (inactive) | > 100 µM (inactive) | > 100 µM (inactive) | > 100 µM (inactive) | > 100 µM (inactive) | > 100 µM (inactive) | > 100 µM (inactive) | 66.5 µM (inactive) | > 100 µM (inactive) | > 100 µM (inactive) | > 100 µM (inactive) | > 100 µM (inactive) | 
COc1ccc(C2SC(=N)Nc3c2c(C)nn3C(=O)c2ccccc2O)cc1 (stereo not drawn) | 0.412 µM (active) | 0.374 µM (active) | 2.04 µM (inactive) | > 10 µM (inactive) | 0.655 µM (active) | 4.58 µM | > 10 µM (inactive) | 3.6 µM (inactive) | 0.843 µM (active) | 0.904 µM (active) | 2.12 µM (inactive) | 1.56 µM (inactive) | 0.885 µM (active) | 3.98 µM (inactive) | 2.57 µM (inactive) | 5.47 µM (inactive) | 8.99 µM (inactive) | 2.81 µM (inactive) | 0.583 µM (active) | 
C1=C(c2ccccc2)CN(c2ccccc2)OC1 | 85.9 µM (inactive) | 63.2 µM (inactive) | > 100 µM (inactive) | > 100 µM (inactive) |  | 77.4 µM |  | > 100 µM (inactive) |  | > 100 µM (inactive) |  | 44.8 µM (inactive) | 79.3 µM (inactive) |  | 50.6 µM (inactive) | > 100 µM (inactive) |  |  | 67.3 µM (inactive) | 63.5 µM (inactive)
Brc1ccc2[nH]cc(-c3csc(-c4c[nH]c5ccc(Br)cc45)n3)c2c1 | 2.69 µM (inactive) | 1.93 µM (inactive) | 1.92 µM (inactive) | 1.86 µM (inactive) | 1.68 µM (inactive) | 2.02 µM | 1.69 µM (inactive) | 1.69 µM (inactive) | 2.25 µM (inactive) | 2.1 µM (inactive) | 2.21 µM (inactive) | 1.64 µM (inactive) | 2.05 µM (inactive) | 2.48 µM (inactive) | 1.9 µM (inactive) | 1.84 µM (inactive) | 2.44 µM (inactive) | 2.92 µM (inactive) | 1.85 µM (inactive) | 
CN1CCN(c2c(Cl)cc(Cl)c3[nH]c4ccccc4c(=O)c23)CC1 | 5.56 µM (inactive) | 2.9 µM (inactive) | 0.67 µM (active) | 5.66 µM (inactive) | 3.21 µM (inactive) | 3.39 µM | 1.35 µM (inactive) | 3.64 µM (inactive) | 8.41 µM (inactive) | 9.77 µM (inactive) | 7.35 µM (inactive) | 3.1 µM (inactive) | 2.86 µM (inactive) | 5.85 µM (inactive) | 12.2 µM (inactive) | 3.82 µM (inactive) | 9.23 µM (inactive) | 8.45 µM (inactive) | 4.68 µM (inactive) | 
NC(=O)N/N=C(\CCC(=O)N(Cc1ccccc1)Cc1ccccc1)CC(=O)c1ccc(F)cc1 | 37.1 µM (inactive) | > 100 µM (inactive) | > 100 µM (inactive) | > 100 µM (inactive) | > 100 µM (inactive) | > 100 µM |  | > 100 µM (inactive) |  | > 100 µM (inactive) |  |  | > 100 µM (inactive) | > 100 µM (inactive) | > 100 µM (inactive) | > 100 µM (inactive) |  | > 100 µM (inactive) | > 100 µM (inactive) | > 100 µM (inactive)
CCOC(=O)N1CCC(=O)C(CNC23CC4CC(CC(C4)C2)C3)C1 (stereo not drawn) | > 100 µM (inactive) | 17.5 µM (inactive) | 16.9 µM (inactive) |  |  |  | 20.7 µM (inactive) | 19 µM (inactive) |  | > 100 µM (inactive) |  |  | > 100 µM (inactive) | > 100 µM (inactive) | > 100 µM (inactive) | 19.8 µM (inactive) |  | 23.9 µM (inactive) | > 100 µM (inactive) | > 100 µM (inactive)
CCCCCCCCCCNC(=O)CCC(NC(=O)c1ccc(N(C)Cc2cnc3nc(N)nc(N)c3n2)cc1)C(=O)NCCCCCCCCCC (stereo not drawn) | 28.6 µM (inactive) | 44.7 µM (inactive) | 2.53 µM (inactive) | 5.75 µM (inactive) | 3.71 µM (inactive) | 17.9 µM | 9.1 µM (inactive) | 2.36 µM (inactive) | 4.47 µM (inactive) | 18.8 µM (inactive) | > 90.6 µM (inactive) | 10 µM (inactive) | 9.62 µM (inactive) | 43.7 µM (inactive) | 13.6 µM (inactive) | 3.13 µM (inactive) | 11.6 µM (inactive) | 7.89 µM (inactive) | 18.9 µM (inactive) | 
O=[N+]([O-])c1ccc(N2C[N+](c3ccccc3)=NC(c3ccccc3)=N2)cc1 | 34.6 µM (inactive) | 19.3 µM (inactive) | 45.1 µM (inactive) |  | 23.3 µM (inactive) | 28.6 µM | 35.7 µM (inactive) | 26.1 µM (inactive) |  | > 100 µM (inactive) |  | 39.3 µM (inactive) | 29.4 µM (inactive) | 35.6 µM (inactive) | 20.5 µM (inactive) | 68.4 µM (inactive) |  | 38.5 µM (inactive) | 26.2 µM (inactive) | 31.9 µM (inactive)
C=CCSC1=N/C(=C\c2ccccc2)C(=O)N1CC=C | 44.6 µM (inactive) | 41.8 µM (inactive) | 22.9 µM (inactive) | 28.9 µM (inactive) | 29.8 µM (inactive) | 35.2 µM | 17.1 µM (inactive) | 26.4 µM (inactive) | 30.3 µM (inactive) | 28.5 µM (inactive) | 45.1 µM (inactive) | 24.7 µM (inactive) | 6.85 µM (inactive) | 58.1 µM (inactive) | 29.6 µM (inactive) | 49.7 µM (inactive) | 29.2 µM (inactive) | 33.2 µM (inactive) | 33.3 µM (inactive) | 
Cc1cccc2c(N)c3cccc(C(=O)NCCCNCCN)c3nc12 | 0.596 µM (active) | 10.5 µM (inactive) | 1.46 µM (inactive) | 4.35 µM (inactive) | 7.5 µM (inactive) | 28.3 µM | 5.61 µM (inactive) | 7.11 µM (inactive) | 13.7 µM (inactive) | 0.311 µM (active) | 25.9 µM (inactive) | 7.08 µM (inactive) | 0.124 µM (active) | 4.45 µM (inactive) | 16.3 µM (inactive) | 8.43 µM (inactive) | 7.85 µM (inactive) | 16.6 µM (inactive) | 4.38 µM (inactive) | 
CCOc1ccc(/N=N/S(=O)(=O)O)cc1 | > 100 µM (inactive) | > 100 µM (inactive) | > 100 µM (inactive) | > 100 µM (inactive) | > 100 µM (inactive) | > 100 µM | > 100 µM (inactive) | > 100 µM (inactive) | > 100 µM (inactive) | > 100 µM (inactive) | > 100 µM (inactive) | > 100 µM (inactive) | > 100 µM (inactive) | > 100 µM (inactive) | > 100 µM (inactive) | > 100 µM (inactive) | > 100 µM (inactive) | > 100 µM (inactive) | > 100 µM (inactive) | 
